The experiment addresses T1, human factor Xa (Homo sapiens, UniProt P00742).
T1 construct: purchased Enzyme Research Laboratories
The experiment can be described thus: Factor Xa chromogenic peptide substrate assay (S-2222). Format: biochemical.

pKi: −log10 of the molar value.

T1 sequence (P00742 235-488 limits assumed): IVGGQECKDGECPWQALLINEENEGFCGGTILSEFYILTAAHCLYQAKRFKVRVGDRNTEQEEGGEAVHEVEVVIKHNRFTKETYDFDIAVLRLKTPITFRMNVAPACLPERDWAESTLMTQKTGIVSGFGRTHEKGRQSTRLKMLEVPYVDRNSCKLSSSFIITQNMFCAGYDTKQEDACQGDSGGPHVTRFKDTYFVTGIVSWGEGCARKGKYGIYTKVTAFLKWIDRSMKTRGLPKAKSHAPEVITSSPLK
T1 sequence (P00742 41-179 partner limits assumed): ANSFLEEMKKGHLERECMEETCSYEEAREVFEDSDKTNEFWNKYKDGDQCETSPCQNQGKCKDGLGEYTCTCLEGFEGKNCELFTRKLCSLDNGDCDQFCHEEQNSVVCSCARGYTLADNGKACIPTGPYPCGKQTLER
Description: Factor Xa activity was measured spectrophotometrically in microtiter plates in a final volume of 150 μl using the following conditions: Inhibition of human factor Xa (Enzyme Research Laboratories) was tested at an enzyme concentration of 3 nM using the chromogenic substrate S-2222 (Chromogenix AB, Mölndal, Sweden) at 200 nM. The reaction kinetics of the enzyme and the substrate were linear with both time and the enzyme concentration. The inhibitors were dissolved in DMSO and tested at various concentrations up to 100 μM. The inhibitors were diluted using HNPT buffer consisting of HEPES 100 mM, NaCl 140 mM, PEG 6000 0.1% and Tween 80 0.02%, pH 7.8. […] The velocity of the reaction was determined by the autoreader from the slope of the linear regression fit to 7 time points (1 minute). The initial velocity for each inhibitor concentration was determined by the slope of at least 4 time points in the linear phase by a linear regression fit (mOD/min^2). Apparent dissociation constants Ki were calculated according to Cheng and Prusoff [Cheng, Y. C.; Prusoff, W. H. Relationship between the inhibition constant (Ki) and the concentration of the inhibitor that causes 50 percent inhibition (IC50) of an enzyme reaction. Biochem. Pharmacol. 1973, 22, 3099-3108.] based on the IC50 and the respective Km, determined previously (Ki=IC50/(1+S/Km)). […]

As for `CNC(=O)CN1C[C@H](C(=O)Nc2ccc(Cl)cc2)[C@@H](C(=O)Nc2ccc(-n3ccccc3=O)cc2F)C1` [Example 26, (3R,4R)-1-Methylcarbamoylmethyl-pyrrolidine-3,4-dicarboxylic acid 3-[(4-chloro-phenyl)-amide] 4-{[2-fluoro-4-(2-oxo-2H-pyridin-1-yl)-phenyl]-amide}], the pKi (usually −log10 of the Ki, conventionally taken in molar units) was 7.66.

These data come from patent publication US7550487B2, “Pyrrolidine-3,4-dicarboxamide derivatives” (Hoffmann-La Roche Inc., priority 2004, dated 2009).
